Seven compounds from patent US20070087344A1, “Methods for characterizing signaling pathways and compounds that interact therewith” (BIOSEEK, INC., priority 2003, published 2007) can be followed below.

“Also recorded” adds a separate entry of the source. Read-outs that look alike come from different tables or passages of the source.

Common to all, as to format: cell-based, human
Experiment [1] relates to HUVEC cell lines over-expressing RELA. Put plainly: VCAM-1 expression (ELISA) in HUVEC over-expressing RELA.
Experiment [2] deals with HUVEC cell lines over-expressing IKBKB. Put plainly: VCAM-1 expression (ELISA) in HUVEC over-expressing IKBKB. Background: In an ELISA, binding on a coated surface is turned into a signal by an enzyme label.
Experiment [3] relates to Endothelial cells over-expressing single genes from NFkB, PI3K/Akt, RAS/MAPK or JAK/STAT pathways. Put plainly: Compound profiling in 20 gene over-expression assays (NFkB, PI3K/Akt, RAS/MAPK, JAK/STAT), pairwise Pearson correlation. The note with it: DRB 10 micromolar, Apigenin 6 micromolar, 24 hours.
Method: Endothelial cells expressing 16 individual genes from NFκB, RAS, PI3K/AKT and JAK/STAT (IFN-γ and IL-4) pathways were treated with compounds for 24 hours. Where indicated additional cytokines were added to cells to reveal activity of the over-expressed genes (e.g. AKT1/IL1 means that IL-1-beta was added to AKT-over-expressing cells). Parameters measured were VCAM-1 for NFκB, PI3K, and RAS/MAPK pathway genes, HLA-DR for JAK/STAT(IFNγ) pathway genes, and VCAM-1 (IL4/VCAM-1) and Eotaxin-3 (IL4/Eot3) for JAK/STAT(IL4) pathway. […] Statistically significant correlations (permutation method described further in the text and in Example 1B) in the table are shaded (dark grey for correlation coefficients in the range of 0.75 to 1, and light grey for the range of 0.55 to 0.75).
With a permutation technique, an average distribution of the correlation coefficients that will be obtained by chance is constructed and the values of the correlations that correspond to a required level of significance are obtained. The original similarity matrix is filtered using these values, thus providing a consistent way of identifying correlations coefficients with potential biological significance. This method also allows calculation of a false positive rate, providing the user with a way of balancing “hit rate” and stringency of correlation significance. […]
Experiment [4] relates to TNF-alpha-treated cells. The experiment in a line: VCAM-1 expression in TNF-alpha-treated endothelial cells. From the text:
(§1) Gene over-expression generally results in activation of the target pathway (in contrast to most pharmaceutical drugs, which are typically inhibitors).
(§2) To explore this observation further, we re-examined the response to MYD88 and genes encoding representative members of the RAS/MAPK and NFkB pathways (RAS* and TNFRSF1A, respectively) in all individual cell systems. […] By contrast, the response induced by MYD88 in IL-1-beta-treated cells was similar to that induced by RAS*, the main effect being to inhibit expression of the adhesion molecules VCAM-1 and E-selectin. Over-expression of MYD88 thus appears to stimulate the RAS/MAPK pathway under these conditions. […] MYD88 (and IRAK1) are known to be involved in IL-1-induced but not in TNF-induced signaling, and PD098059 indeed had no effect on VCAM-1 expression in TNF-alpha-treated cells. Multi-system analysis can thus detect novel functional interrelationships between different signaling pathways.

The subject of experiment [5] is MYD88 over-expressing endothelial cells. Put plainly: Response to MYD88 over-expression in IL-1-beta-treated endothelial cells (VCAM-1, E-selectin). The note with it: IL-1-beta-treated cells; MYD88 inhibits VCAM-1 and E-selectin expression. As to the method:
(§3) A. Grouping Genes into Signal Transduction Pathways by Gene Over-Expression. Genes encoding key elements of pro-inflammatory pathways (IL-1, TNF-alpha, CD40, and IFN-gamma), the core NFkB pathway, the PI3K/Akt pathway, and the RAS/RAF/MEK pathway (see Table 2) were introduced into endothelial cells by retroviral transduction and allowed to express their encoded proteins for 48 hours, substantially as described in Example 1. The gene-modified endothelial cells were then subjected to 24 hour cytokine stimulation.
as §1
as §2, with “Multi-system analysis can thus detect novel functional interrelationships between different signaling pathways.” left out

The test system of experiment [6] is RAS*, RAF* or MEK1* over-expressing cells. The experiment in a line: Profiles induced by over-expression of RAS*, RAF* or MEK1* genes. From the text:
The pathway information developed by practice of the methods of the present invention facilitates the in-depth characterization (mechanism-of-action studies) of chemical compounds. […] A high throughput approach can be used to test a compound against genes from known signaling pathways, as well as genes of unknown pathway origin.

Experiment [7] relates to RAS* over-expressing endothelial cells. Put plainly: Response to RAS* over-expression in IL-1-beta-treated endothelial cells (VCAM-1, E-selectin). The following applies: IL-1-beta-treated cells; RAS* inhibits VCAM-1 and E-selectin expression. As to the method: as §3, §1
as §2, with “Multi-system analysis can thus detect novel functional interrelationships between different signaling pathways.” left out

The test system of experiment [8] is HUVEC cell lines over-expressing TNF-alpha. Put plainly: VCAM-1 expression (ELISA) in HUVEC over-expressing TNF-alpha.
The test system of experiment [9] is HUVEC stimulated with IL-1-beta, TNF-alpha and IFN-gamma. Put plainly: Functional profiles in HUVEC stimulated with IL-1-beta, TNF-alpha and IFN-gamma compared with siRNA knock-down profiles. The note with it: E-selectin, HLA-DR, ICAM-1, IL-8, MCP-1, MIG, VCAM-1 readouts.
From the text: The cells used to generate functional profiles were HUVEC stimulated with a mixture of cytokines IL-1beta+TNF-alpha+IFN-gamma, and the readout parameters were E-selectin, HLA-DR, ICAM-1, IL-8, MCP-1, MIG and VCAM-1. Statistical analysis (permutation method) and generation of a two-dimensional map was done as described above.
Early passage (<5) exponentially growing HUVEC cells were harvested, washed once with PBS, and resuspended at 2×10^6 cells in 100 microliter Nucelofection solution (Human Umbilical Vein Endothelial Cell Nucleofector Kit, AMAXA, Koeln, Germany). SiRNA (15 microliter of a 20 micromolar solution; Dharmacon, Lafayette, Colo.) was added to the cell suspension, transferred into an electroporation cuvette, and electroporated using the U-1 setting on an AMAXA Nucleofector device. The cell suspension was then transferred into a separate tube containing 3 ml of complete EGM-2 media (Clonetics), incubated at 37° C. for 10 minutes, and plated into 96-well microtiter plates (25,000 cells/well) for cytokine activation and ELISA analysis as described above. Statistical analyses and pairwise correlation analyses of functional profiles obtained by gene knock-down were performed in the manner as described for the gene-over-expression approach described above.

For the compound `CC(Cc1ccc(O)c(O)c1)C(C)Cc1ccc(O)c(O)c1` (stereo not shown) [NDGA, nordihydroguaiaretic acid], the “Inhibition of RELA induced VCAM-1 expression” value in experiment [1] is “not IKBKB or RELA induced VCAM-1 expression; also recorded: inhibits only the TNF-alpha gene”. The “Inhibition of IKBKB induced VCAM-1 expression” value in [2] is on record as “not IKBKB or RELA induced VCAM-1 expression; also recorded: inhibits only the TNF-alpha gene”. For the compound `O=c1cc(-c2ccc(O)cc2)oc2cc(O)cc(O)c12` [apigenin], the “Overlap of functional profile with those of 17-MG and beta-zearalenol” value in experiment [3] is recorded as “only in the JAK/STAT portion of the overall profile”. Regarding `COc1cccc(-c2cc(=O)c3ccccc3o2)c1N` [PD098059], the “Effect on VCAM-1 expression” value in experiment [4] is given as “no effect”. The “Effect on the response induced by MYD88 over-expression” value in experiment [5] is “reversed the effect”. Besides, the “Effect on profiles induced by RAS*, RAF* or MEK1* genes” value in experiment [6] (gene over-expressing cells) is recorded as “affected”. Moreover, the “Effect on the response induced by RAS* over-expression” value in experiment [7] was “reversed the effect”. Regarding `OC[C@H]1O[C@@H](n2cnc3cc(Cl)c(Cl)cc32)[C@H](O)[C@@H]1O` [DRB], the “Overlap of functional profile with those of 17-MG and beta-zearalenol” value in experiment [3] was “only in the JAK/STAT portion of the overall profile”. With `CC(C)Cc1ccc(C(C)C(=O)O)cc1` (stereo not shown) [ibuprofen], the “Inhibition of RELA induced VCAM-1 expression” value in experiment [1] is “not in RELA over-expressing cells”. Further, the “Inhibition of IKBKB induced VCAM-1 expression” value in experiment [2] was “inhibits TNF-alpha and IKBKB genes”. In addition, the “Inhibition of TNF-alpha induced VCAM-1 expression” value in experiment [8] is “inhibits TNF-alpha and IKBKB genes”. For `Oc1ccc(-c2nc(-c3ccncc3)c(-c3ccc(F)cc3)[nH]2)cc1` [SB202190], the “Similarity of functional profile to siRNA-mediated dual knock-down of MEK3 and 6” value in [9] was “similar”. As for `N#CC(=C(/N)Sc1ccccc1N)/C(C#N)=C(/N)Sc1ccccc1N` [Uo126], the “Effect on profiles induced by RAS*, RAF* or MEK1* genes” value in experiment [6] is reported as “affected”.
